Molecules are shown by their SMILES.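 Cells were grown in 96-well plates and exposed to each compound for 48 hours at five concentrations; endpoints were interpolated linearly between bracketing concentrations, or set to the highest concentration if not reached. At the GI50, growth is halved. TGI marks complete inhibition of growth.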

Assay in all cases: NCI anticancer screen, dose series, 48 h
In test [1] the test system is A549 NSCLC.
For test [2], the system named is HCT-15 colon.
Test [3] has as its system KM12 colon.
In test [4] the test system is NCI-H23 lung.
Test [5] has as its system NCI-H522 lung.
Test [6] deals with SF-539 CNS.
Test [7] deals with SK-OV-3 ovarian.
Test [8] relates to SN12C renal.
In test [9] the test system is SNB-19 CNS.
Test [10] relates to SW-620 colon.

As to `COCCNc1cc(NC(=O)N2CCCc3cc(CN4CCN(C)CC4=O)c(C=O)nc32)ncc1C#N`, the GI50 was above 50000 nM in test [1]; 33.1 µM in test [2]; above 50000 nM in [3]; above 50000 nM in test [4]; above 50000 nM in test [5]; above 50000 nM in [6]. Further, the GI50 in [7], in test [8], in [9] and in test [10] was above 50000 nM each time. Further, the TGI in test [1], in test [2], in [3], in test [4], in test [5] and in test [6] was above 50 µM in each case. Moreover, the TGI in [7], in test [8], in [9] and in test [10] was above 50 µM each time.
For the compound `Nc1c(C(=O)Nc2ccccc2)sc2nc3c(cc12)CN(Cc1ccccc1)CC3`, the GI50 in test [1] is 13900 nM; in [2] it was 24.7 µM; in test [3], 19100 nM; in test [4], 21700 nM; in test [5], 32500 nM; in test [6], 2780 nM. Further, the GI50 in test [7] is 3530 nM; in test [8], 65700 nM; in [9] it was 18300 nM; in [10], 20800 nM. The TGI in test [1], in test [2], in [3], in test [4], in test [5] and in [6] was above 100 µM throughout. Also, the TGI in test [7], in [8], in test [9] and in [10] was above 100 µM throughout.
Take `CC(C)C12C=CC(C)(CC1)n1c(=O)c3cc4ccccc4cc3c(=O)n12` (stereo not given): the TGI in test [1] is above 100 µM; in test [2], above 100 µM; in test [3], above 100 µM; in test [4], above 100 µM; in [5], 83.7 µM; in test [6], above 100 µM. Moreover, the TGI in test [7], in test [8], in test [9] and in [10] was above 100 µM in each case.
With `CN(C(=O)c1ccncc1)c1ccccc1`, the TGI in [1], in test [2], in test [3], in [4], in test [5] and in test [6] was above 100 µM throughout. The TGI in [7], in [8], in [9] and in [10] was above 100 µM throughout.
`CC(C)c1ccc(Nc2nccc(-c3cnn4ncccc34)n2)cc1`: the GI50 in [1] is 600 nM; in [2], 0.614 µM; in test [3], 201 nM; in [4] it was 483 nM; in [5] it was 564 nM; in test [6], 481 nM. Further, the GI50 in test [7] was 930 nM; in test [8] it was 660 nM; in test [9] it was 842 nM; in test [10], 516 nM. The TGI in test [1] was 3.65 µM; in test [2], above 25 µM; in test [3], 1.83 µM; in test [4], above 7 µM; in test [5] it was 3.35 µM; in test [6], 1.68 µM. In addition, the TGI in [7] was 2.89 µM; in test [8] it was above 17.9 µM; in [9], above 25 µM; in [10] it was 9.07 µM.
As to `COc1cc(C2C3=C(COC3=O)Nc3cc4c(cc32)CCC4)cc2c1OCO2` (stereo not given), the GI50 was 61 nM in [1]; 0.0728 µM in [2]; 30.5 nM in test [3]; 42.7 nM in [4]; 20 nM in test [5]; 32.8 nM in test [6]. In addition, the GI50 in [7] is 33.5 nM; in test [8] it was 59.5 nM; in test [9], 72.4 nM; in test [10], 41.3 nM. In addition, the TGI in test [1] was 12.7 µM; in test [2] it was above 62.1 µM; in [3], 0.12 µM; in [4] it was 3.04 µM; in test [5] it was 0.0562 µM; in test [6], 8.73 µM. Also, the TGI was 1.01 µM in test [7], 20.2 µM in test [8], 23.3 µM in test [9] and 13.2 µM in test [10].
Consider `CCC(=O)N(O)C(C)(C)C`, for which the TGI in test [1], in [2], in test [3], in test [4], in [5] and in test [6] was above 100 µM in each case. For the same compound, the TGI in test [7], in test [8], in test [9] and in test [10] was above 100 µM throughout.

These data come from PubChem BioAssay (NCI).
